In US6908899B2, “Pro-inflammatory fibrinopeptide” (U.S. Dept. of Veterans Affairs, priority 2001, dated 2005):

Tests used:
[1] = tested on: foreskin fibroblasts; assay: IL-8 ELISA on cell culture supernatants; assay type: cell-based, human; settings: 1 mg/ml GPRP
[2] = tested on: human foreskin fibroblasts; assay: Flow cytometry analysis of ICAM-1 expression; assay type: cell-based; settings: GPRP 1 mg/ml
[3] = tested on: foreskin fibroblasts; assay: ICAM-1 cell-ELISA (O.D. 492); assay type: cell-based, human
[4] = tested on: synovial cells from patients with osteoarthritis (OA); assay: ICAM-1 ELISA (O.D. 492); assay type: cell-based, human; settings: OA line; overnight; IL-1 0.5 ng/ml, GPRP or GPRP-amide 1 mg/ml, fibrinogen receptor peptide 0.1 mg/ml, FPA, FPB 10^−4 M
[5] = tested on: RA synovial fibroblasts; assay: GRO-alpha ELISA on cell culture supernatants; assay type: cell-based, human
Protocol: (§1) I used commercial ELISA kits to assay cell culture supernatants of RA fibroblasts that were cultured for both 24 and 48 hours with or without peptide.

[6] = tested on: RA synovial fibroblasts; assay: IL-6 ELISA on cell supernatants; assay type: cell-based, human; settings: overnight with GPRP
[7] = tested on: fibrin polymerization; assay: Inhibition of fibrin polymerization; assay type: biochemical; settings: applicant's studies of fibrin co-culture (Reference 19)
Source text: (§2) Synthetic peptides modeled after these “knobs” are able to inhibit fibrin polymerization by covering up the “holes” on the gamma chains and are commercially available.
For example, changing Gly1 to anything else destroys its inhibitory action as there appears to be no extra “room” for a side chain in the gamma chain “hole” into which it must fit. However, as noted below, amino acid Pro4 functions differently.

[8] = tested on: RA synovial cell lines; assay: Flow cytometry analysis of ICAM-1 expression; assay type: cell-based, human
[9] = tested on: RA synovial fibroblasts; assay: ICAM-1 cell-ELISA (O.D. 492); assay type: cell-based, human; settings: for ICAM-1 O.D. 492 / ICAM-1 expression O.D. 492: overnight; for ICAM-1 O.D. 492: IL-1 0.5 ng/ml, GPRP or GPRP-amide 1 mg/ml, fibrinogen receptor peptide 0.1 mg/ml, FPA, FPB 10^−4 M; for ICAM-1 expression O.D. 492: fibrin clots 0.6 mg/ml or GPRP 1 mg/ml, mean ± SD, triplicate
[10] = tested on: endothelial cells; assay: Fibrin co-culture with endothelial cells; assay type: cell-based
Source text: as §2

[11] = tested on: OA synovial cells; assay: PDTC inhibition of IL-1 and GPRP induction of ICAM-1 (ELISA); assay type: cell-based, human; settings: PDTC pre-incubation 1.5 hours, IL-1 or GPRP overnight, ± SD, triplicate
Source text: (§3) NF-kappaB activation is already well known to affect a broad array of immediate-early gene products, such as TNF, interleukins, chemokines and colony stimulating factors; genes that are tightly regulated during inflammation and wound healing. […] PDTC is an anti-oxidant that prevents NF-kappaB activation and its translocation to the nucleus (Reference 26). […] [table]

[12] = tested on: RA synovial cells; assay: as above; assay type: cell-based, human; settings: PDTC pre-incubation 1.5 hours, IL-1 or GPRP overnight, ± SD, triplicate
Source text: as §3

[13] = tested on: Synovial cells; assay: SAC competition assay by flow cytometry; assay type: binding, human
Source text: Thus, labeled peptide could facilitate the isolation, identification and characterization of its receptor, through standard immunological techniques such as immunohistochemistry, flow cytometry and immunoprecipitation.

[14] = tested on: RA derived synovial cells; assay: In vitro T cell adhesion assay; assay type: cell-based, human; settings: ± SD, triplicate wells
[15] = tested on: RA synovial fibroblasts; assay: IL-8 ELISA on cell culture supernatants; assay type: cell-based, human; settings: for IL-8: 1 mg/ml GPRP
Protocol: as §1

[16] = tested on: foreskin fibroblasts; assay: GRO-alpha ELISA on cell culture supernatants; assay type: cell-based, human; settings: for Increase in GRO-alpha secretion: foreskin FB
[17] = tested on: foreskin fibroblast cells; assay: In vitro T cell adhesion assay; assay type: cell-based, human; settings: Foreskin line, ± SD, triplicate wells
[18] = tested on: synovial cells; assay: RT-PCR of IL-6 gene expression; assay type: cell-based; settings: versus controls
[19] = tested on: foreskin fibroblasts; assay: IL-6 ELISA on cell supernatants; assay type: cell-based, human; settings: overnight with GPRP
[20] = RA line 4, fibrin clot 0.6 mg/ml or GPRP 1 mg/ml
[21] = RA line 9, fibrin clot 0.6 mg/ml or GPRP 1 mg/ml

Sequence of fibrin polymerization (P02679 27-453): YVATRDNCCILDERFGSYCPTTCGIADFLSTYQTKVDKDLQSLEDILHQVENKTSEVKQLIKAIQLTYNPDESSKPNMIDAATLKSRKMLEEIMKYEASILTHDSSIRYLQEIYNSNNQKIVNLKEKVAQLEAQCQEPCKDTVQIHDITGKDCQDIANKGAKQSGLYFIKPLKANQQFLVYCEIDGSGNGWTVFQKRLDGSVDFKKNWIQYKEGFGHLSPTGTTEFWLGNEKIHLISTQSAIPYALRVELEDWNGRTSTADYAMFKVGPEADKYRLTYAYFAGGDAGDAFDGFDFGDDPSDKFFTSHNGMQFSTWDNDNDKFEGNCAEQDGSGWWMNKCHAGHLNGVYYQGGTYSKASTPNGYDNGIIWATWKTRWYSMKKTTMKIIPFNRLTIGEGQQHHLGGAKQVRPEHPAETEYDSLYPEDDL
Sequence of fibrin polymerization (P02671 20-639 isoform P02671-2 partner limits assumed): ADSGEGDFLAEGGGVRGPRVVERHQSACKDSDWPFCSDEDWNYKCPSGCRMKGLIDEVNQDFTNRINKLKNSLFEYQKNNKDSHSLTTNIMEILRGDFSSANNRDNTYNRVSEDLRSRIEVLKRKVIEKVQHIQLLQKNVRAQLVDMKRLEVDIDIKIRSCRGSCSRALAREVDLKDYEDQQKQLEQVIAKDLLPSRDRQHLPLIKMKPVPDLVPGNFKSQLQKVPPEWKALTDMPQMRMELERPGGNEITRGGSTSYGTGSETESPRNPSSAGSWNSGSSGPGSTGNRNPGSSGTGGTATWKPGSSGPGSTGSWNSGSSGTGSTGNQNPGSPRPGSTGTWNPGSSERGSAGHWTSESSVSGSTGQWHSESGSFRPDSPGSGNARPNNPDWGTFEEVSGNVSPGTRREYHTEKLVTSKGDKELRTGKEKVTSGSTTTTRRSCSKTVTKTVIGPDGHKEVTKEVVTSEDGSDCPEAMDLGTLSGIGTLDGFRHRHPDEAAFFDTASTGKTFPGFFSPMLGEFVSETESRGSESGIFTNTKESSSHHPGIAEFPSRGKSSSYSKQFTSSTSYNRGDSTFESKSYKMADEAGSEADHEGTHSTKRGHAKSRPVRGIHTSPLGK
Sequence of fibrin polymerization (P02675 45-491 partner limits assumed): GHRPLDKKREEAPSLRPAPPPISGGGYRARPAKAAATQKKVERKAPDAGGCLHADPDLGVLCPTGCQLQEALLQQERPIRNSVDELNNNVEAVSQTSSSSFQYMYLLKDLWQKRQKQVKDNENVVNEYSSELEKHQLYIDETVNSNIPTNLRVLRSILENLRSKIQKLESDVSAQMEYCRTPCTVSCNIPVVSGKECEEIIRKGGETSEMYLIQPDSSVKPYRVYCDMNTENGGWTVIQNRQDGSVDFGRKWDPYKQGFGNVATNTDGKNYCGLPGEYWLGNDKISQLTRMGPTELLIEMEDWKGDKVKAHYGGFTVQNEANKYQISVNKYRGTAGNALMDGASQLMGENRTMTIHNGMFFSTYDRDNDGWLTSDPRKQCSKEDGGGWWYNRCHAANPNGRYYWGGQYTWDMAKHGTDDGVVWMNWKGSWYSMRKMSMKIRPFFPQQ

Gly-Pro-Arg-Pro [GPRP]
IL-8 ([1]; 24 hr): 1,840 pg/ml | IL-8 ([1]; 48 hr): 1,200 pg/ml | ICAM-1 % positive [2]: 86.7% | ICAM-1 MFC [2]: 2.26 | ICAM-1 OD 492 ([3]; FF-#1, GPRP 0.10 mg/ml overnight): 0.92 ± .02 | ICAM-1 OD 492 ([3]; FF-#1, GPRP 0.30 mg/ml overnight): 0.99 ± .01 | ICAM-1 OD 492 ([3]; FF-#1, GPRP 1.00 mg/ml overnight): 1.02 ± .01 | ICAM-1 OD 492 ([3]; FF-#1, GPRP .001 mg/ml overnight): 0.92 ± .01 | ICAM-1 OD 492 ([3]; FF-#1, GPRP .003 mg/ml overnight): 0.95 ± .06 | ICAM-1 OD 492 ([3]; FF-#1, GPRP .010 mg/ml overnight): 0.93 ± .03 | ICAM-1 OD 492 ([3]; FF-#1, GPRP .030 mg/ml overnight): 0.94 ± .05 | ICAM-1 OD 492 ([3]; FF-#2, GPRP 0.10 mg/ml overnight): .72 ± .02 | ICAM-1 OD 492 ([3]; FF-#2, GPRP 0.30 mg/ml overnight): .72 ± .03 | ICAM-1 OD 492 ([3]; FF-#2, GPRP 1.00 mg/ml overnight): .78 ± .04 | ICAM-1 OD 492 ([3]; FF-#2, GPRP .001 mg/ml overnight): .69 ± .02 | ICAM-1 OD 492 ([3]; FF-#2, GPRP .003 mg/ml overnight): .71 ± .04 | ICAM-1 OD 492 ([3]; FF-#2, GPRP .010 mg/ml overnight): .71 ± .02 | ICAM-1 OD 492 ([3]; FF-#2, GPRP .030 mg/ml overnight): .70 ± .02 | ICAM-1 expression O.D. 492 ([3]; Foreskin fibroblasts, overnight, fibrin clots 0.6 mg/ml, GPRP 1 mg/ml or interferon γ 200 U/ml, mean ± SD): 0.55 ± .05 | ICAM-1 O.D. 492 ([3]; Foreskin line, overnight, IL-1 0.5 ng/ml, GPRP or GPRP-amide 1 mg/ml, fibrinogen receptor peptide 0.1 mg/ml, FPA, FPB 10^−4 M): 0.79 ± .02 | ICAM-1 O.D. 492 [4]: 0.85 ± .08 | GRO-alpha Fold Increase ([5]; RA fibroblasts, visual observation of developed ELISA plates): at least as much as was seen for IL-8 | GRO-alpha ([5]; RA line 8, 1 mg/ml GPRP): 8500 pg/mL | GRO-alpha Fold Increase ([5]; RA line 8, 1 mg/ml GPRP, versus control): 21X | IL-6 ([6]; RA #1): 2400 pg/mL | IL-6 INCREASE over control ([6]; RA #1): 1.50X | IL-6 ([6]; RA #11): 1700 pg/mL | IL-6 INCREASE over control ([6]; RA #11): 6.18X | IL-6 ([6]; RA #16): 11100 pg/mL | IL-6 INCREASE over control ([6]; RA #16): 3.70X | IL-6 ([6]; RA #18): 940 pg/mL | IL-6 INCREASE over control ([6]; RA #18): 1.90X | Inhibition of fibrin polymerization [7]: good inhibitor of fibrin polymerization | ICAM-1 % positive [8, 20]: 87.0% | ICAM-1 MFC [8, 20]: 2.73 | ICAM-1 % positive ([8]; RA line 5, GPRP 1 mg/ml): 74.5% | ICAM-1 MFC ([8]; RA line 5, GPRP 1 mg/ml): 2.00 | ICAM-1 % positive ([8]; RA line 6, GPRP 1 mg/ml): 95.0% | ICAM-1 MFC ([8]; RA line 6, GPRP 1 mg/ml): 9.19 | ICAM-1 % positive [8, 21]: 80.1% | ICAM-1 MFC [8, 21]: 3.62 | ICAM-1 induction ([9]; GPRP at 0.01 mg/ml): not to be significant | ICAM-1 induction ([9]; GPRP at 1.0, 0.5, and 0.1 mg/ml): significant induction | ICAM-1 O.D. 492 ([9]; RA line 1): 1.38 ± .16 | ICAM-1 O.D. 492 ([9]; RA line 2): 0.98 ± .03 | ICAM-1 expression O.D. 492 ([9]; RA line 4): 1.04 ± .02 | ICAM-1 expression O.D. 492 ([9]; RA line 5): 1.10 ± .03 | ICAM-1 expression O.D. 492 ([9]; RA line 9): 0.98 ± .15 | ICAM-1 OD 492 ([9]; RA#11, GPRP 0.10 mg/ml overnight): .37 ± 0 | ICAM-1 OD 492 ([9]; RA#11, GPRP 0.30 mg/ml overnight): .46 ± .05 | ICAM-1 OD 492 ([9]; RA#11, GPRP 1.00 mg/ml overnight): .59 ± .05 | ICAM-1 OD 492 ([9]; RA#11, GPRP .001 mg/ml overnight): .24 ± .05 | ICAM-1 OD 492 ([9]; RA#11, GPRP .003 mg/ml overnight): .25 ± .03 | ICAM-1 OD 492 ([9]; RA#11, GPRP .010 mg/ml overnight): .24 ± .05 | ICAM-1 OD 492 ([9]; RA#11, GPRP .030 mg/ml overnight): .31 ± .02 | ICAM-1 OD 492 ([9]; RA#12, GPRP 0.10 mg/ml overnight): 0.76 ± .03 | ICAM-1 OD 492 ([9]; RA#12, GPRP 0.30 mg/ml overnight): 1.09 ± .06 | ICAM-1 OD 492 ([9]; RA#12, GPRP 1.00 mg/ml overnight): 1.42 ± .08 | ICAM-1 OD 492 ([9]; RA#12, GPRP .001 mg/ml overnight): 0.51 ± .01 | ICAM-1 OD 492 ([9]; RA#12, GPRP .003 mg/ml overnight): 0.53 ± .01 | ICAM-1 OD 492 ([9]; RA#12, GPRP .010 mg/ml overnight): 0.57 ± .02 | ICAM-1 OD 492 ([9]; RA#12, GPRP .030 mg/ml overnight): 0.62 ± .03 | ICAM-1 expression ([9]; more than seven different RA fibroblast lines): consistently increased expression of ICAM-1 | Direct effects on endothelial cells [10]: no direct effects | ICAM-1 O.D. 492 ([11]; OA line 2): 1.66 ± .05 | ICAM-1 O.D. 492 ([11]; OA line 8): 1.30 ± .09 | ICAM-1 O.D. 492 ([12]; RA line 5): 1.83 ± .08 | ICAM-1 O.D. 492 ([12]; RA line 6): 1.67 ± .06 | Competition with biotin-labeled SAC for binding to human synovial fibroblasts ([13]; unlabeled competitor): can compete | Mean (fluorescence of bound SAC[KBtn]) ([13]; unlabeled competitor 2.5 mg for 3 hours, then labeled SAC[KBtn] for 1 hour, Avidin-FITC): 33.58 | Adherent T cell numbers ([14]; RA line 7, GPRP 0.1 mg/ml overnight): 184 ± 58 | Adherent T cell numbers ([14]; RA line 7, GPRP 1 mg/ml overnight): 153 ± 54 | Adherent T cell numbers ([14]; RA line 8, GPRP 0.1 mg/ml overnight): 99 ± 18 | Adherent T cell numbers ([14]; RA line 8, GPRP 1 mg/ml overnight): 97 ± 10 | Increase of IL-8 production ([15]; RA Line 1, forty-eight hours): fifteen | Increase of IL-8 production ([15]; RA Line 1, twenty-four hours): 12.6 fold | Increase of IL-8 production ([15]; RA Line 2, forty-eight hours): ten | Increase of IL-8 production ([15]; RA Line 2, twenty-four hours): ten | IL-8 ([15]; RA line 1, 24 hr): 16,000 pg/ml | IL-8 ([15]; RA line 1, 48 hr): 17,500 pg/ml | IL-8 ([15]; RA line 4, 24 hr): 9,000 pg/ml | IL-8 ([15]; RA line 4, 48 hr): 6,800 pg/ml | GRO-alpha ([16]; Foreskin fibroblasts, 1 mg/ml GPRP): 470 pg/mL | GRO-alpha Fold Increase ([16]; Foreskin fibroblasts, 1 mg/ml GPRP, versus control): 1.2X | Increase in GRO-alpha secretion ([16]; forty-eight hours): 1.2 fold | Increase in GRO-alpha secretion ([16]; twenty-four hours): 1.2 fold | Adherent T cell numbers ([17]; GPRP 0.1 mg/ml overnight): 51 ± 3 | Adherent T cell numbers ([17]; GPRP 1 mg/ml overnight): 54 ± 11 | IL-6 gene expression [18]: significantly more IL-6 gene expression than controls | IL-6 [19]: 215 pg/mL
